Assays:
Format in all cases: cell membranes, Striatum, Membrane
D(1A) dopamine receptor = D(1A) dopamine receptor (Rattus norvegicus, UniProt P18901); test: Compound was evaluated for its affinity to Dopamine receptor D1 labelled with [3H]-SCH- 23390 in rat striatal membranes
D(2) dopamine receptor [1] = molecular target: T1, D(2) dopamine receptor (Rattus norvegicus, UniProt P61169); test: Compound was evaluated for its affinity to Dopamine receptor D2 labelled with [3H]pramipexole in rat striatal membranes
D(2) dopamine receptor [2] = molecular target: T1, D(2) dopamine receptor; test: Compound was evaluated for its affinity to Dopamine receptor D2 labelled with [3H]spiroperidol in rat striatal membranes

T1 sequence (P61169 whole entry): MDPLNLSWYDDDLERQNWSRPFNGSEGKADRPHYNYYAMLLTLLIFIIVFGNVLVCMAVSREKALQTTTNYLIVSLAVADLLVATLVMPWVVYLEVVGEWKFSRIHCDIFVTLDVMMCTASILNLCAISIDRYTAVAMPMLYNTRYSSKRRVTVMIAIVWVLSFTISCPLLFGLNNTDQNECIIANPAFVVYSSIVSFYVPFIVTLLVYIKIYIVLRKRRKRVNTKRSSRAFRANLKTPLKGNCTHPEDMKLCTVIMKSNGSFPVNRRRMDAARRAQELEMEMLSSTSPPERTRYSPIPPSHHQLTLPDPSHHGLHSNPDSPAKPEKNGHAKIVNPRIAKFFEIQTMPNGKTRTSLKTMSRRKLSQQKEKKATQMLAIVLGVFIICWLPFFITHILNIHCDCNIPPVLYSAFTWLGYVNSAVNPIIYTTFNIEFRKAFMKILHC
Sequence of D(1A) dopamine receptor (P18901 whole entry): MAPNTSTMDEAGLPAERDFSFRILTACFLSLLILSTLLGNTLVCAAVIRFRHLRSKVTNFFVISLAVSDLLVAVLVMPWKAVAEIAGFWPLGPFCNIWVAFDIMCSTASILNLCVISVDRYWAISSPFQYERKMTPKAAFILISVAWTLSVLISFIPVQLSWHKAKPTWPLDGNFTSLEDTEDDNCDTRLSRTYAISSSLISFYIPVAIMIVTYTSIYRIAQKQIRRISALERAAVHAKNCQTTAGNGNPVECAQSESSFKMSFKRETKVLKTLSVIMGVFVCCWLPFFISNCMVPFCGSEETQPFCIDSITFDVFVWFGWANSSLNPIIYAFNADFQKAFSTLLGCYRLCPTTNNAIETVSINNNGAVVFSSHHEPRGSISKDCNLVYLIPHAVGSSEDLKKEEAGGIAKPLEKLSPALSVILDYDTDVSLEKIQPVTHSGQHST

CCCN(CCC)C1Cc2ccccc2[C@H](O)C1 (stereo partly specified)
Ki (D(1A) dopamine receptor): > 50 µM
Ki (D(2) dopamine receptor [1]): 35.7 nM
Ki (D(2) dopamine receptor [2]): 13.9 µM

CCCN(CCC)C1Cc2ccccc2[C@@H](O)C1 (stereo partly specified)
Ki (D(1A) dopamine receptor): > 50 µM
Ki (D(2) dopamine receptor [1]): 262 nM
Ki (D(2) dopamine receptor [2]): 13 µM
